IC50 data for 16 compounds are collected here from patent US20230234967A1, “Fused Azole Heterocycles as AHR Antagonists” (Senda Biosciences, Inc., priority 2021, published 2023).

One may read the IC50 as the midpoint of a concentration-inhibition curve.

The structures appear in SMILES notation.

The experiment deals with T1, AHR (Homo sapiens, UniProt P35869).
T1 construct: other cell line with a DRE-luciferase reporter stably transfected; endogenous in cells; host or cells: Human HepG2 liver carcinoma AhR-Lucia reporter cells
T1 sequence (P35869 11-848): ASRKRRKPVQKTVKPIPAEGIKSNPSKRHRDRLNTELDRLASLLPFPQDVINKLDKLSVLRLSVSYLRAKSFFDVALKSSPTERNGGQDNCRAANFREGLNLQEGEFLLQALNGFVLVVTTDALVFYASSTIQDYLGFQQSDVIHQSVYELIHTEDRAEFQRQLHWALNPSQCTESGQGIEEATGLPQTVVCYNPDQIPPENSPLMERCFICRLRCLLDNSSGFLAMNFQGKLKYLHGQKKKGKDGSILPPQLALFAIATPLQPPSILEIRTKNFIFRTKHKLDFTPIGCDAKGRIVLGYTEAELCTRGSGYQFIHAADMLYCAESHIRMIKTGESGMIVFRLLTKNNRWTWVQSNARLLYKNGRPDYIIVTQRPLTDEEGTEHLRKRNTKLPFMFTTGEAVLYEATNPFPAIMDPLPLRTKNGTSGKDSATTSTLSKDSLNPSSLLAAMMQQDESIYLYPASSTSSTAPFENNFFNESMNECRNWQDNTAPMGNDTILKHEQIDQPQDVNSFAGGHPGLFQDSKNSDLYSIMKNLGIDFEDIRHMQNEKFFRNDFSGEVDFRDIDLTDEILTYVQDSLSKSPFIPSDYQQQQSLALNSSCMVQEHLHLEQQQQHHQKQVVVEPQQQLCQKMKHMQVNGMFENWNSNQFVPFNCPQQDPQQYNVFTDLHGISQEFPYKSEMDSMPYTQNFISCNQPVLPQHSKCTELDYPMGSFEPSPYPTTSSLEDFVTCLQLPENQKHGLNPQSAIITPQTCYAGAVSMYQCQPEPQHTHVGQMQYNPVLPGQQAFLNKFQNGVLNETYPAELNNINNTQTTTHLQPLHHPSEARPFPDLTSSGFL
As to the kind of experiment: DRE-Luciferase Reporter Assay (HepG2 AhR-Lucia reporter cells). It counts as cell-based. The settings on record: AHR activating ligand at its EC50, luciferase read-out, read-out: HEPG2 Luc IC50. From the text:
Example 27: DRE-Luciferase Reporter Assay
AHR binds to Dioxin Responsive Elements (DRE) upstream of genes that it activates. One measure of AHR activity is activation of a reporter gene, such as luciferase, downstream of one or multiple DRE elements. Luciferase activity will reflect activation and inhibition of AHR in the cells expressing his reporter. 20000 Human HepG2 liver carcinoma—AhR-Lucia reporter cells or Human HT29 colon adenocarcinoma—AhR reporter cells or other cell line with a DRE-luciferase reporter stably transfected were plated in Eagle's Minimal Essential Medium, 10% heat-inactivated FBS, 1×non-essential amino acids Pen-Strep (10,000 U/mL) and Normocin (100 ug/mL) in plates (96-well, 384-well or other plates) and incubated overnight at 37° C. in a CO2 incubator and treated with and without AhR antagonists at a log dilution starting at 100 uM.
After 1 hr that cells were plated an AHR activating ligand, such as TCDD, kynurenine, ITE (2-(1H-indole-3-ylcarbonyl)-4-thiazolecarboxylic methyl ester), VAF347, BNF (beta-naphthoflavone), FICZ (6-formylindolo(3,2-b) carbazole) or other AHR ligands at their specific EC50 concentration, were added to the cells with or without AHR antagonist.
Cells were incubated for 24 or 48 hours or another time point and then, supernatant was analyzed for determination of luciferase activity as a read-out of the AHR activation or inhibition. Luciferase was measured with the commercial kit QUANTI-Luc™ assay solution kit from Invivogen following the manufacturer's instructions.
The level of luciferase with only agonist ligand added was the maximum signal while the luciferase with […] was the minimum signal. IC50 values were determined as the concentration which inhibits half of the luciferase activity. “A” indicates an IC50 value less than 100 nM, “B” indicates an IC50 between 100 and 500 nM, “C” indicates an IC50 above 500 nM.

Consider `Cn1nccc1C(=O)Nc1nc2ccc(-c3ccccc3C(F)(F)F)nc2s1` [Product 1, 1-methyl-N-(5-(2-(trifluoromethyl)phenyl)thiazolo[5,4-b]pyridin-2-yl)-1H-pyrazole-5-carboxamide], for which the IC50 is greater than 500 nM. As to `Cc1ccccc1-c1ccc2nc(NC(=O)c3ncnn3C)sc2n1` [Product 2, 1-Methyl-N-(5-(o-tolyl)thiazolo[5,4-b]pyridin-2-yl)-1H-1,2,4-triazole-5-carboxamide], the IC50 lay within 100 to 500 nM. For `Cn1nccc1C(=O)Nc1nc2ccc(-c3ccccc3C(F)F)nc2s1` [Product 3, N-(5-(2-(difluoromethyl)phenyl)thiazolo[5,4-b]pyridin-2-yl)-1-methyl-1H-pyrazole-5-carboxamide], the IC50 fell in the range of 100 to 500 nM. In the case of `COc1ccccc1-c1ccc2nc(NC(=O)c3ncnn3C)sc2n1` [Product 4, N-(5-(2-methoxyphenyl)thiazolo[5,4-b]pyridin-2-yl)-1-methyl-1H-1,2,4-triazole-5-carboxamide], the IC50 lay within 100 to 500 nM.

With `Cn1nccc1C(=O)Nc1nc2ccc(-c3cc(F)ccc3C(F)F)nc2s1` [Product 5, N-(5-(2-(difluoromethyl)-5-fluorophenyl)thiazolo[5,4-b]pyridin-2-yl)-1-methyl-1H-pyrazole-5-carboxamide], the IC50 is greater than 500 nM. The value for `Cn1ncnc1C(=O)Nc1nc2ccc(-c3ccccc3C(F)(F)F)nc2s1` [Product 6, 1-Methyl-N-(5-(2-(trifluoromethyl)phenyl)thiazolo[5,4-b]pyridin-2-yl)-1H-1,2,4-triazole-5-carboxamide] was greater than 500 nM; that for `Cn1ncnc1C(=O)Nc1nc2ccc(-c3ccccc3C(F)F)nc2s1` [Product 7, N-(5-(2-(difluoromethyl)phenyl)thiazolo[5,4-b]pyridin-2-yl)-1-methyl-1H-1,2,4-triazole-5-carboxamide] was greater than 500 nM.

Take `Cc1ccccc1-c1ccc2nc(NC(=O)c3cccnc3)sc2n1` [Product 9, N-(5-(o-tolyl)thiazolo[5,4-b]pyridin-2-yl)nicotinamide]: the IC50 is greater than 500 nM. For the compound `Cc1ccccc1-c1ccc2nc(NC(=O)c3ccncc3)sc2n1` [Product 10, N-(5-(o-tolyl)thiazolo[5,4-b]pyridin-2-yl)isonicotinamide], the IC50 is greater than 500 nM.

In the case of `Cn1ncnc1C(=O)Nc1nc2ccc(-c3cc(F)ccc3C(F)F)nc2s1` [Product 11, N-(5-(2-(difluoromethyl)-5-fluorophenyl)thiazolo[5,4-b]pyridin-2-yl)-1-methyl-1H-1,2,4-triazole-5-carboxamide], the IC50 is greater than 500 nM.

With `COc1ccccc1-c1ccc2nc(NC(=O)c3cccnc3)sc2n1` [Product 13, N-(5-(2-methoxyphenyl)thiazolo[5,4-b]pyridin-2-yl)nicotinamide], the IC50 fell in the range of 100 to 500 nM. As for `COc1ccccc1-c1ccc2nc(NC(=O)c3ccncc3)sc2n1` [Product 14, N-(5-(2-methoxyphenyl)thiazolo[5,4-b]pyridin-2-yl)isonicotinamide], the IC50 was less than 100 nM. As for `COc1cccc(-c2ccc3nc(NC(=O)c4ccnn4C)sc3n2)c1` [Product 16, N-(5-(3-methoxyphenyl)thiazolo[5,4-b]pyridin-2-yl)-1-methyl-1H-pyrazole-5-carboxamide], the IC50 was in the range of 100 to 500 nM. In the case of `CN(C)C(=O)c1cccc(-c2ccc3nc(NC(=O)c4ccnn4C)sc3n2)c1` [Product 17, N-(5-(3-(dimethylcarbamoyl)phenyl)thiazolo[5,4-b]pyridin-2-yl)-1-methyl-1H-pyrazole-5-carboxamide], the half-inhibitory concentration (IC50) is greater than 500 nM. For `CN(C)c1cccc(-c2ccc3nc(NC(=O)c4ccnn4C)sc3n2)c1` [Product 19, N-(5-(3-(dimethylamino)phenyl)thiazolo[5,4-b]pyridin-2-yl)-1-methyl-1H-pyrazole-5-carboxamide] the value was greater than 500 nM; for `CN(C)c1ccc(-c2ccc3nc(NC(=O)c4ccnn4C)sc3n2)cc1` [Product 20, N-(5-(4-(dimethylamino)phenyl)thiazolo[5,4-b]pyridin-2-yl)-1-methyl-1H-pyrazole-5-carboxamide], less than 100 nM.
